{"source": "paper PMC8424300", "about": "“Identification of novel microtubule inhibitors effective in fission yeast and human cells and their effects on breast cancer cell lines” (Open Biology, 2021)", "key": {"HeLa cells": {"system": "HeLa cells", "assay": "Time-lapse live imaging of mitotic progression and cell fate in HeLa cells (H2B-mCherry, EGFP-α-tubulin)", "format": "cell-based, human", "details": "for mitotic duration (prophase to cytokinesis): 24 h imaging, DMSO control 77 ± 6 min; for phenotype after mitotic arrest: 0.1 and 0.25 µM compound", "method": "To determine whether these 34 compounds also induce mitotic abnormalities in human cells, a second screen of these compounds was conducted using HeLa cells. We used time-lapse microscopy to monitor mitotic progression in HeLa cells expressing mCherry-tagged histone H2B to mark chromatin, and EGFP-tagged α-tubulin to monitor microtubules over a 24 h time period in the presence of 2 µM of each of the 34 compounds. The duration of mitosis was determined by live-cell imaging, defined as the period from prophase to cytokinesis based on chromatin and microtubule morphologies (figure 2a). The control DMSO-treated cells progressed through mitosis with a mean mitotic duration of 77 ± 6 min. Among the 34 compounds we tested, nine caused a significant increase in mitotic duration in human cells (figure 2a), ranging from 122 ± 42 min (F15) to 720 ± 53 min (C16). […] As described in the Discussion, we have not carried out a detailed analysis for B8 in this study. To determine whether these cell deaths were caused by apoptosis, caspase activity was assayed for 24 h using time-lapse microscopy in the presence of the 12 compounds. Caspase 3 and Caspase 7 activities were observed 12–24 h after the addition of the compounds (electronic supplementary material, figure S1A). There were also other indications of apoptosis including the morphological chances reminiscing of membrane blebbing, chromatin condensation and cell explosion (electronic supplementary material, figure S1B). Caspase-mediated apoptosis induction is similar to the effects of mitotic arrest caused by anti-microtubule drugs in HeLa cells. […] We conclude that these 12 compounds cause mitotic arrest followed by cell death through apoptotic activation.\nFigure 2. Effect of compounds on mitotic progression in HeLa cell (a). Duration of mitosis was analysed by live imaging of HeLa cells stably expressing H2B-mcherry (red) and EGFP-a tubulin (green) treated in the presence of 0.5 µM (K1, L1, J1) or 2 µM (C16, E2, O12, M2, I15, J3, I2, A15, F15) compound for 24 h and the time in mitosis was measured in 200 cells. DMSO-treated cells are shown, which served as the vehicle control. Show mean as ‘+’. (b). The Cell fate after mitosis (normal division, abnormal division or cell death) was quantitatively assessed after the mitotic arrest observed in (a). (c) Dose-dependent change of phenotypes after mitotic arrest with K1, L1 and J1.\nFor live-cell imaging experiments, 200 000 cells were seeded onto glass-bottom culture dishes (MatTek P35GC-1.5-14-C). Cells were grown overnight before the addition of the compound, and the culture media was replaced with fresh media lacking phenol red to limit phototoxicity before imaging.\nLive-cell imaging was performed in a LCV110 U VivaView FL incubator microscope (Olympus) equipped with an X-Cite-exacte illumination source (Excelitas Technologies) and Orca-R2 CCD camera (Hamamatsu Photonics). For screening, images were acquired with a 20 × objective every 15 min for 24–48 h in the differential interference contrast (DIC), m-cherry and GFP channels. For assessment of apoptosis, the cells were monitored every 15 min for 24 h. Individual cells were manually analysed using the CellCognition browser."}, "[1]": {"target": "T1, porcine brain tubulin heterodimer (Sus scrofa, UniProt P02550+P02554)", "T1 construct": "highly purified porcine brain tubulin heterodimer; purchased Cytoskeleton T240 (kit BK011P); host or cells: porcine brain tissue", "T1 sequence (P02554 whole entry)": "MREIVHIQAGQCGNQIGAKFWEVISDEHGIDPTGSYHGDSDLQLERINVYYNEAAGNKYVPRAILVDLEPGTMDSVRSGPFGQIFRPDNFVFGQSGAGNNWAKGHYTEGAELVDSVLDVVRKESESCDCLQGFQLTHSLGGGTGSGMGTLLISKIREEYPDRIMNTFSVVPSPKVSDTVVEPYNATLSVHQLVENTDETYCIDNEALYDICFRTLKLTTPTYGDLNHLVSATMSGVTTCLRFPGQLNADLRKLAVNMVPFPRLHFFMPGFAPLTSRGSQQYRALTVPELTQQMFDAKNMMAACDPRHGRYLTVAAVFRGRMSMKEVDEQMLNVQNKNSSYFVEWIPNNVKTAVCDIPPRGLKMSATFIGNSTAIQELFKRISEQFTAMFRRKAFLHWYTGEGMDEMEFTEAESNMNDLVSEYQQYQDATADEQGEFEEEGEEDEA", "T1 sequence (P02550 whole entry)": "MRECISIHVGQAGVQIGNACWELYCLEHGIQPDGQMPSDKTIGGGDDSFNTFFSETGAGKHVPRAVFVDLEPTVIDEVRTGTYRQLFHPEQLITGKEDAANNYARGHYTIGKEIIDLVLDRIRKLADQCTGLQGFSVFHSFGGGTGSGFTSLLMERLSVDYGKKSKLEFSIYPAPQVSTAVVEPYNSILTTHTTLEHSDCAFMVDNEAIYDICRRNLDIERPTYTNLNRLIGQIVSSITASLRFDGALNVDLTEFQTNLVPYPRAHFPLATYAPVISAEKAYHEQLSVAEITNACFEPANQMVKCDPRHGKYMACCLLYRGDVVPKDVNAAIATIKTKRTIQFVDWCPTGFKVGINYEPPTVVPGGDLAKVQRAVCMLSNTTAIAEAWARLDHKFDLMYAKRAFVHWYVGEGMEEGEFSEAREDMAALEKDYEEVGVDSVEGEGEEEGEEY", "assay": "In vitro tubulin polymerization assay", "format": "biochemical", "details": "37°C; for IC50: figure 3c, 1 h", "method": "To determine whether the 12 compounds affected mitotic spindle organization by directly interfering with tubulin polymerization, we performed in vitro tubulin polymerization assays. […] Tubulin polymerization was monitored every 1 min by measuring fluorescence absorbance at 340 nm for 1 h.\nFigure 3. […] Tubulin was incubated with 5 µM of the compounds and DMSO for 60 min at 37°C. The fluorescence increase was monitored every minute at 340 nm. […] (b). […] Nocodazole (NOC) was used as the control. (c). […] (d) The same experiment as (c) but carried out at a different time.\nThe Tubulin Polymerization HTS Assay Kit (Cytoskeleton, BK011P) was used according to the manufacturer's instructions. All components were added into a 96-well microtiter plate (Corning Costar, cat. no. 3686), then the tubulin reaction mixture was quickly added to the wells, and tubulin polymerization was initiated and monitored every 1 min at 37°C for 1 h by recording fluorescence of excitation wavelength at 340 nm and emission at 450 nm. The tubulin reaction mixture was composed of 80 mM PIPES (pH 6.9), and 1 mM MgCl2, 1 mM EGTA, 1 mM GTP and 2 mg ml^−1 of highly purified porcine brain tubulin heterodimer (Cytoskeleton, cat. no. T240)."}, "MDR-sup fission yeast": {"system": "MDR-sup fission yeast", "assay": "Phenotypic assay of microtubule organization in MDR-sup strain expressing GFP-atb2", "format": "cell-based, Schizosaccharomyces pombe", "details": "same phenotype = no interphase microtubules or mitotic spindles detectable, tubulin in nucleus; figure S2", "method": "We have previously screened a collection of 10 371 small molecules to identify compounds that inhibit the growth of a multiple-drug-sensitive fission yeast strain (MDR-sup). We selected 248 compounds (2.4% of the total) that inhibited fission yeast cell growth rate by at least 50% (figure 1a) and subsequently conducted a phenotypic screen of these to identify drugs that affect microtubule organization (figure 1b). After the MDR-sup cells were treated with 5 µM of each compound for 3 h, microtubules were monitored using GFP tagged α-tubulin Atb2 and live-cell fluorescence microscopy. In untreated interphase cells, microtubules form long cytoplasmic arrays that run parallel to the long cellular axis, and in mitotic cells, microtubules form a bipolar spindle in the nucleus and the cytoplasmic microtubules disappear (figure 1c(i), arrow). […] This screen identified 34 compounds that induced cytological phenotypes indicative of defects in microtubule organization or function.\nFigure 1. Phenotypic screening in MDR-sup fission yeast (a). Growth assay screening using MDR-sup strain. The optical density was measured with 20 µM of each compound and 248 compounds that gave at least 50% growth inhibition were used for further phenotyping marked by the red lines. Growth was normalized to DMSO-treated cells. (b) Schematic representation of the screening workflow. (c) Examples of the phenotypic assay using L1, P2 and B8 in the MDR-sup strain expressing GFP-atb2 (tubulin) are shown. Cells were incubated in 5 µM compound for 3 h and atb2 signals were detected in living cells. (i) Cells in absence of any compound. In interphase cells, α-tubulin Atb2 protein was detected in the nucleus and interphase microtubules, while mitotic spindles were detected in mitotic cells (arrows). (ii) In the presence of L1, microtubules were depolymerized and tubulin signals were detected distributed throughout the nucleus. (iii) In the presence of P2, short spindles were detected but anaphase spindles were not. (iv) In the presence of B8, interphase microtubules were not detected, while, dots were detected. […]"}, "CAL51 cells": {"system": "CAL51 cells", "assay": "Clonogenic (colony-forming) assay", "format": "cell-based, human", "details": "0.1 nM BI2536 alone, 12 h exposure, 9 days growth", "method": "Finally, a clonogenic assay was used to further evaluate the synergy effects between the L1 and Plk1 inhibitors to inhibit colony formation of breast cancer CAL51 cells after a 12 h drug exposure. The percentages of colony formation of cells treated with 0.1 nM BI2536 alone and 0.5 µM L1 alone were 89% and 67%, respectively, while cells treated with both 0.1 nM BI2536 and 0.5 µM L1 together were 2% (figure 10) indicating strong synergetic effects in colony formation.\nFigure 10. Quantification of the colony formation experiments (n = 3) after a 12 h exposure. CAL51 cells were treated with vehicle control, 0.1 nM BI2536, 0.5 µM L1 or 0.1 nM BI2536 and 0.5 µM L1 for 12 h. Cells were grown for 9 days in fresh media after 12 h exposure. Mean ± s.e.m. (n = 3) is shown.\nCAL51 cells were plated at a density of 200 cells per 60 mm tissue culture dish. After 24 h, they were treated with vehicle (DMSO), 0.1 nM BI2538, 0.5 µM L1 or the combination of 0.1 nM BI2538 and 0.5 µM L1, respectively, for 12 h. After an exposure, the cells were washed with warm sterile PBS, and incubated for additional 9 days in fresh media. After the incubation, cells were fixed and stained with a 20% MeOH: 0.01% crystal violet solution for 30 min. Colonies were counted using a stereomicroscope in three independent experiments."}, "WTβIII HeLa cell line": {"system": "WTβIII HeLa cell line", "assay": "Cell viability in HeLa cell line overexpressing wild-type βIII tubulin", "format": "cell-based", "details": "Homo sapiens", "method": "One of the main mechanisms of drug resistance is due to the overexpression of class III β tubulin. […] The ability of L1 to overcome β III tubulin-mediated multidrug resistance was evaluated in two HeLa isogenic cell lines.\nFigure 7.\n(§1) Cells were plated in 384-well plates at a density of 800 cells per well in 22.5 µl of media. After 24 h, 2.5 µl drug was diluted in media and was added to each well. Following 5 days of incubation, viability was assessed using CellTiter-Glo (Promega) according to the manufacture's protocol. Luminescence in each well was measured using a Synergy Neo2 plate reader (BioTek)."}, "[2]": {"system": "BT549, CAL51 and MB-157 breast cancer cell lines", "assay": "Viability dose-response in breast cancer cell lines", "format": "cell-based", "details": "Homo sapiens, 96 h; range over the breast cell lines and the non-cancer cell line MCF-10A; 4 days of treatment", "method": "The sensitivity of the inhibitors L1, J3, A15 and M2 were evaluated in three breast cancer cell lines, (BT549, CAL51 and MB-157) and a non-cancer cell line from the human mammary gland, MCF-10A (figure 8). Drug sensitivity was determined by culturing breast cancer cell lines (black lines) and the non-cancer cell line (red line) with a range of concentrations of each compound, and viability was measured after 4 days of treatment in triplicate.\nFigure 8. Dose–response curves in three cancer cell lines (BT549, CAL51 and MB-157) are shown in black and non-cancer cell line; MCF-10A is shown in red. They were subjected to a dose–response matrix of the tubulin inhibitor, L1, A15, M2 and J3, respectively. Viability relative to the vehicle control was measured […] after treatment. Mean ± s.e.m. for n = 3 experiments is shown.\nas §1"}, "[3]": {"details": "read-out: IC50 of tubulin polymerization"}}, "note": "Like-named read-outs stand apart in the source and are kept apart here.", "data": [{"compound": "CC(C)(C)C#C/C=N/n1nnc(-c2ccccc2)n1", "note": "[F15]", "values": [{"measurement": "mitotic duration (prophase to cytokinesis)", "setting": "HeLa cells; 2 µM compound", "value": "122 ± 42", "unit": "min"}, {"measurement": "effect on in vitro tubulin polymerization", "setting": "[1]; 5 µM compound, 60 min", "value": "no observable effects on polymerization"}]}, {"compound": "CCCCNC(=O)n1c(NC(=O)OC)nc2ccccc21", "note": "[benomyl]", "values": [{"measurement": "microtubule phenotype with known inhibitors of microtubule polymerization", "setting": "MDR-sup fission yeast", "value": "same phenotype"}]}, {"compound": "CC[C@@H]1C(=O)N(C)c2cnc(Nc3ccc(C(=O)NC4CCN(C)CC4)cc3OC)nc2N1C1CCCC1", "note": "[BI2536, reference compound]", "values": [{"measurement": "percentage of colony formation", "setting": "CAL51 cells", "value": 89, "unit": "%"}]}, {"compound": "O=[N+]([O-])C1=Cc2ccccc2OC1c1ccc2c(c1)OCO2", "note": "(centres unmarked) [K1]", "values": [{"measurement": "cell fate", "setting": "HeLa cells; 0.5 µM compound", "value": "arrested cells initially in mitosis, followed by cell death"}, {"measurement": "cell fate", "setting": "HeLa cells; 2 µM compound", "value": "immediately induced cell death independent of the phase of the cell cycle"}, {"measurement": "phenotype after mitotic arrest", "setting": "HeLa cells", "value": "abnormal multipolar, asymmetric cell divisions, generating 3–4 daughter cells"}, {"measurement": "IC50", "setting": "[1]; [3]", "value": 590, "unit": "nM"}]}, {"compound": "Nc1nn(S(=O)(=O)c2c(F)c(F)c(F)c(F)c2F)cc1-c1ccc(Cl)cc1", "note": "[C16]", "values": [{"measurement": "mitotic duration (prophase to cytokinesis)", "setting": "HeLa cells; 2 µM compound", "value": "720 ± 53", "unit": "min"}]}, {"compound": "COC(=O)Nc1nc2ccc(C(=O)c3cccs3)cc2[nH]1", "note": "[NOC, nocodazole, reference compound]", "values": [{"measurement": "microtubule phenotype with known inhibitors of microtubule polymerization", "setting": "MDR-sup fission yeast", "value": "same phenotype"}, {"measurement": "IC50", "setting": "[1]; IC50 of tubulin polymerization", "value": 560, "unit": "nM"}]}, {"compound": "CC(=O)O[C@H]1C(=O)[C@@]2(C)[C@H]([C@H](OC(=O)c3ccccc3)[C@]3(O)C[C@H](OC(=O)[C@H](O)[C@@H](NC(=O)c4ccccc4)c4ccccc4)C(C)=C1C3(C)C)[C@]1(OC(C)=O)CO[C@@H]1C[C@@H]2O", "note": "[paclitaxel]", "values": [{"measurement": "IC50", "setting": "WTβIII HeLa cell line", "value": 5.6, "unit": "nM"}]}, {"compound": "N#CCCS(=O)(=O)c1nnnn1-c1ccccc1", "note": "[M2]", "values": [{"measurement": "IC50", "setting": "[1]; [3]", "value": 220, "unit": "nM"}, {"measurement": "IC50", "setting": "[2]", "value": "1400 to 1900", "unit": "nM"}]}, {"compound": "COc1ccc(C2Oc3ccc4ccccc4c3C=C2[N+](=O)[O-])cc1OC", "note": "(centres unmarked) [J1]", "values": [{"measurement": "cell fate", "setting": "HeLa cells; 0.5 µM compound", "value": "arrested cells initially in mitosis, followed by cell death"}, {"measurement": "cell fate", "setting": "HeLa cells; 2 µM compound", "value": "immediately induced cell death independent of the phase of the cell cycle"}, {"measurement": "phenotype after mitotic arrest", "setting": "HeLa cells", "value": "abnormal multipolar, asymmetric cell divisions, generating 3–4 daughter cells"}]}]}
